Results taken from paper PMC11424460, “Inhibitory effects of calcium channel blockers nisoldipine and nimodipine on ivacaftor metabolism and their underlying mechanism” (Frontiers in Pharmacology, 2024).

Test system: ivacaftor metabolism in rat liver microsomes (RLM)
Assay: Screening of 79 drugs (100 μM) for inhibition of ivacaftor metabolism in RLM incubation
Type: in vitro ADME
Conditions: each drug 100 μM, 0.3 mg/mL RLM
Method: The supernatants were centrifuged at 100,000 × g for 1 h, and the pellets were resuspended with cold […] PBS. Protein concentrations were determined by Bradford Protein Assay Kit (Thermo Scientific, Waltham, MA, United States).
This system was made up of 200 μL of incubation solution consisting of 0.3 mg/mL RLM or 0.4 mg/mL HLM, 1.0 mM NADPH, pH 7.4 PBS and ivacaftor. […] The solution should be pre-incubated at 37°C for 5 min before adding NADPH. Following the addition of NADPH, the mixture should be incubated for 40 min. The reaction should then be stopped at −80°C. After the enzyme reaction was completed, 20 μL of 500 ng/mL IS solution and 400 μL acetonitrile (protein precipitating agent) were added to the mixture. The mixture was vortexed for 2 min and then centrifuged at 13,000 rpm for 10 min. After centrifugation, 100 μL of the supernatant was quantified using UPLC-MS/MS.
Each drug was used at a concentration of 100 μM as the inhibitor. The culture system was 200 μL and included 0.3 mg/mL RLM, 1.0 mM NADPH, PBS, ivacaftor, and inhibitor. The reaction procedure was the same as the enzyme reaction mentioned above Section 2.2.

| SMILES | Metabolic rate (Mean ± SD, % of control) |
| --- | --- |
| CC(C)=CC[C@@H](O)C1=CC(=O)c2c(O)ccc(O)c2C1=O [Shikonin] | 41.65 ± 3.13 % of control |
| O=c1c(O)c(-c2cc(O)c(O)c(O)c2)oc2cc(O)cc(O)c12 [Myricetin] | 2.38 ± 0.15 % of control |
| CC(C)N(CCCCOCC(=O)NS(C)(=O)=O)c1cnc(-c2ccccc2)c(-c2ccccc2)n1 [Selexipag] | 28.78 ± 2.21 % of control |
| CC(=O)CC(c1ccccc1)c1c(O)c2ccccc2oc1=O (stereo not shown) [Warfarin] | 95.32 ± 3.41 % of control |
| O=C(O)c1cc(O)c(O)c(O)c1 [Gallic acid] | 95.98 ± 6.77 % of control |
| COC(=O)Nc1c(N)nc(-c2nn(Cc3ccccc3F)c3ncc(F)cc23)nc1N [Vericiguat] | 76.32 ± 1.42 % of control |
| O=C(O)/C=C/c1ccc(O)c(O)c1 [Caffeic acid] | 106.41 ± 1.94 % of control |
| O=C(O[C@@H]1Cc2c(O)cc(O)cc2O[C@@H]1c1cc(O)c(O)c(O)c1)c1cc(O)c(O)c(O)c1 [(-)-Epigallocatechin gallate] | 72.21 ± 13.75 % of control |
| CN(C)[C@@H](CCOc1cccc2ccccc12)c1ccccc1 [Dapoxetine] | 19.76 ± 0.64 % of control |
| Oc1ccc(/C=C/c2cc(O)cc(O)c2)cc1 [Resveratrol] | 18.69 ± 0.46 % of control |
| O=C1CCC[C@@H]2[C@H]3CCCN4CCC[C@H](CN12)[C@@H]34 [Sophoridine] | 109.11 ± 5.90 % of control |
| CO[C@H]1O[C@@H]2O[C@@]3(C)CC[C@H]4[C@H](C)CC[C@@H]([C@H]1C)[C@@]24OO3 [Artemether] | 41.88 ± 3.81 % of control |
| C[C@@H]1O[C@@H](O[C@H]2[C@H](Oc3cc(O)c4c(c3)O[C@H](c3ccc(O)cc3)CC4=O)O[C@H](CO)[C@@H](O)[C@@H]2O)[C@H](O)[C@H](O)[C@H]1O [Naringin] | 100.87 ± 17.42 % of control |
| CCc1cccc2c3c([nH]c12)C(CC)(CC(=O)O)OCC3 (stereo not shown) [Etodolac] | 98.19 ± 1.07 % of control |
| CCCNCC(O)COc1ccccc1C(=O)CCc1ccccc1 (stereo not shown) [Propafenone] | 54.95 ± 0.92 % of control |
| CCCCc1oc2ccccc2c1C(=O)c1cc(I)c(OCCN(CC)CC)c(I)c1 [Amiodarone] | 5.73 ± 0.85 % of control |
| CCOC(=O)C1=C(C)NC(C)=C(C(=O)OC)C1c1cccc([N+](=O)[O-])c1 (stereo not shown) [Nitrendipine] | 27.00 ± 0.21 % of control |
| COc1ccccc1OCCNCC(O)COc1cccc2[nH]c3ccccc3c12 (stereo not shown) [Carvedilol] | 12.87 ± 0.57 % of control |
| O=c1c(O)c(-c2ccc(O)c(O)c2)oc2cc(O)cc(O)c12 [Quercetin] | 57.86 ± 5.58 % of control |
| CCCc1nc2c(C)cc(-c3nc4ccccc4n3C)cc2n1Cc1ccc(-c2ccccc2C(=O)O)cc1 [Telmisartan] | 14.98 ± 1.00 % of control |
| CSCCNc1nc(SCCC(F)(F)F)nc2c1ncn2[C@@H]1O[C@H](COP(=O)(O)OP(=O)(O)C(Cl)(Cl)P(=O)(O)O)[C@@H](O)[C@H]1O [cangrelor] | 105.13 ± 0.21 % of control |
| CN/C(=N/CCSCc1nc[nH]c1C)NC#N [Cimetidine] | 62.59 ± 8.46 % of control |
| COC(=O)C1=C(C)NC(C)=C(C(=O)OC(C)(C)CN(C)CCC(c2ccccc2)c2ccccc2)C1c1cccc([N+](=O)[O-])c1 (stereo not shown) [Lercanidipine] | 26.70 ± 7.18 % of control |

| SMILES | Metabolic rate (Mean ± SD, % of control) |
| --- | --- |
| O=c1c(O)c(-c2ccc(O)cc2)oc2cc(O)cc(O)c12 [Kaempferol] | 66.02 ± 4.43 % of control |
| CCCCc1nc(Cl)c(CO)n1Cc1ccc(-c2ccccc2-c2nn[nH]n2)cc1 [Losartan] | 35.88 ± 1.19 % of control |
| O=C(/C=C/C=C/c1ccc2c(c1)OCO2)N1CCCCC1 [Piperine] | 203.66 ± 9.93 % of control |
| O=C1CCc2cc(OCCCCc3nnnn3C3CCCCC3)ccc2N1 [Cilostazol] | 13.12 ± 0.36 % of control |
| COc1ccc([C@@H]2Sc3ccccc3N(CCN(C)C)C(=O)[C@@H]2OC(C)=O)cc1 [Dilthiazem] | 26.04 ± 1.00 % of control |
| COc1ccc([C@@H]2CC(=O)c3c(O)cc(O[C@@H]4O[C@H](CO[C@@H]5O[C@@H](C)[C@H](O)[C@@H](O)[C@H]5O)[C@@H](O)[C@H](O)[C@H]4O)cc3O2)cc1O [Hesperiden] | 104.17 ± 3.09 % of control |
| COc1c(O)cc2c(c1O)[C@@H]1O[C@H](CO)[C@@H](O)[C@H](O)[C@H]1OC2=O [Bergenin] | 142.63 ± 33.46 % of control |
| COc1ccc2cc3[n+](cc2c1OC)CCc1cc2c(cc1-3)OCO2 [Berberine] | 109.72 ± 0.72 % of control |
| O=C(NC[C@H]1CN(c2ccc(N3CCOCC3=O)cc2)C(=O)O1)c1ccc(Cl)s1 [Rivaroxaban] | 85.62 ± 0.92 % of control |
| CC(=O)Oc1cc2c(s1)CCN(C(C(=O)C1CC1)c1ccccc1F)C2 (stereo not shown) [Prasugrel] | 31.93 ± 1.49 % of control |
| O=c1cc(-c2ccccc2)oc2cc(O)cc(O)c12 [Chrysin] | 74.50 ± 20.73 % of control |
| COc1ccc(-n2nc(C(N)=O)c3c2C(=O)N(c2ccc(N4CCCCC4=O)cc2)CC3)cc1 [Apixaban] | 83.91 ± 3.91 % of control |
| CCOc1ccc(Cc2cc([C@]34OC[C@](CO)(O3)[C@@H](O)[C@H](O)[C@H]4O)ccc2Cl)cc1 [PF-04971729] | 92.72 ± 3.41 % of control |
| O=c1cc(-c2ccc(O)c(O)c2)oc2cc(O)cc(O)c12 [Luteolin] | 95.78 ± 7.92 % of control |
| CC(C)=CCC/C(C)=C/C=C/C(C)=C/C=C/C(C)=C/C=C/C=C(C)/C=C/C=C(C)/C=C/C=C(\C)CCC=C(C)C [Lycopene] | 7.16 ± 0.77 % of control |
| O=c1c(-c2ccc(O)cc2)coc2cc(O)ccc12 [Daidzein] | 105.78 ± 2.90 % of control |
| C=C[C@H]1C[N@@]2CC[C@H]1C[C@@H]2[C@@H](O)c1ccnc2ccc(OC)cc12 [Quinidine] | 37.44 ± 4.20 % of control |
| CC[C@H](C)C(=O)O[C@H]1C[C@@H](C)C=C2C=C[C@H](C)[C@H](CC[C@@H]3C[C@@H](O)CC(=O)O3)[C@H]21 [Lovastatin] | 17.75 ± 0.36 % of control |
| COc1cc(-c2oc3cc(O)cc(O)c3c(=O)c2O)ccc1O [Isorhamnetin] | 65.68 ± 3.49 % of control |
| C[C@@H]1O[C@@H](OC[C@H]2O[C@@H](Oc3c(-c4ccc(O)c(O)c4)oc4cc(O)cc(O)c4c3=O)[C@H](O)[C@@H](O)[C@@H]2O)[C@H](O)[C@H](O)[C@H]1O [Rutin] | 91.63 ± 0.31 % of control |
| Cc1ccc(Sc2ccccc2N2CCNCC2)c(C)c1 [Vortioxetine] | 3.17 ± 0.50 % of control |
| COc1cc(/C=C/C(=O)CC(=O)/C=C/c2ccc(O)c(OC)c2)ccc1O [Curcumin] | 8.19 ± 0.34 % of control |
| COc1cc2cc(Oc3ccc4ccc(=O)oc4c3)c(=O)oc2cc1O [Daphnoretin] | 69.60 ± 0.85 % of control |
